This is an account of results in patent US11090304B2 (Amgen Inc., priority 2018, dated 2021).

pIC50: −log10 of the molar value. Where two headings read alike, the source gives them in different places.

The target of experiment [1] is GDP-bound KRAS protein (aa 1-169), containing both G12C and C118A amino acid substitutions (Homo sapiens, UniProt P01116, C118A/G12C). Description: Coupled nucleotide exchange assay (SOS-mediated, AlphaScreen). The experiment is classed as biochemical. As to conditions: 5 min compound pre-incubation.
Sequence of GDP-bound KRAS protein (aa 1-169), containing both G12C and C118A amino acid substitutions (P01116 1-169 isoform P01116-2 G12C/C118A): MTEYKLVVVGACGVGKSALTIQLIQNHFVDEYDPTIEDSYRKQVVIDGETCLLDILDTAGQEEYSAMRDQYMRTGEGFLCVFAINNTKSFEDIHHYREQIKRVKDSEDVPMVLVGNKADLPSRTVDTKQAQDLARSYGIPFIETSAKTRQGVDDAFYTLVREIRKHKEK
Experiment [2] relates to Phosphorylation of ERK1/2 in MIA PaCa-2 cells. Description: Phospho-ERK1/2 MSD assay in MIA PaCa-2 cells. As to conditions: Homo sapiens, read-out: p-ERK IC50 (2 h; MIA PaCa-2), 2 h compound treatment. The experiment is classed as cell-based. An outline of the steps: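 Following a 2 or 4 h incubation with titrated compound, cells receive a 10 min pulse of 10 ng/mL EGF. Phospho-ERK1/2 in RIPA lysates is then quantified by MSD immunoassay, and IC50 values come from a four-parameter logistic model.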

As to `C=CC(=O)N1CCN(c2nc(=O)n(-c3c(C)ncnc3C(C)C)c3nc(-c4ccccc4F)c(F)cc23)[C@@H](C)C1` [Example 58-12, 6-fluoro-7-(2-fluorophenyl)-1-(4-methyl-6-(2-propanyl)-5-pyrimidinyl)-4-((2S)-2-methyl-4-(2-propenoyl)-1-piperazinyl)pyrido[2,3-d]pyrimidin-2(1H)-one], the “Coupled exchange IC50 (5 min)” value in experiment [1] is given as 0.953 | nda μM. Also, the negative-log IC50 (pIC50) in experiment [2] (MIA PaCa-2, 2 h) is 6.29.
As to `C=CC(=O)N1CCN(c2nc(=O)n(-c3c(C)cccc3C3CC3)c3nc(-c4c(O)cccc4F)c(F)cc23)[C@@H](C)C1` [Example 58-13, 1-(2-cyclopropyl-6-methylphenyl)-6-fluoro-7-(2-fluoro-6-hydroxyphenyl)-4-((2S)-2-methyl-4-(2-propenoyl)-1-piperazinyl)pyrido[2,3-d]pyrimidin-2(1H)-one], in experiment [1], the “Coupled exchange IC50 (5 min)” value is 0.809 | nda μM. For the same compound, the pIC50 in experiment [2] (MIA PaCa-2, 2 h) is 6.58.
As to `C=CC(=O)N1CCN(c2nc(=O)n(-c3c(C(C)C)ccnc3C)c3nc(-c4ccccc4F)c(F)cc23)[C@@H](C)C1` [Example 58-16, 6-fluoro-7-(2-fluorophenyl)-1-(2-methyl-4-(2-propanyl)-3-pyridinyl)-4-((2S)-2-methyl-4-(2-propenoyl)-1-piperazinyl)pyrido[2,3-d]pyrimidin-2(1H)-one], the “Coupled exchange IC50 (5 min)” value in experiment [1] was 0.553 | nda μM. Further, in experiment [2] (MIA PaCa-2, 2 h), the pIC50 was 6.25.
Taken in the same sequence, the figures for `C=CC(=O)N1CCN(c2nc(=O)n(-c3c(C4CC4)ccnc3C)c3nc(-c4c(O)cccc4F)c(F)cc23)[C@@H](C)C1` [Example 58-19, 1-(4-cyclopropyl-2-methyl-3-pyridinyl)-6-fluoro-7-(2-fluoro-6-hydroxyphenyl)-4-((2S)-2-methyl-4-(2-propenoyl)-1-piperazinyl)pyrido[2,3-d]pyrimidin-2(1H)-one] were 0.44 | nda μM and 6.02.
Taken in the same sequence, the figures for `C=CC(=O)N1CCN(c2nc(=O)n(-c3c(CC)ncnc3CC)c3nc(-c4c(O)cccc4F)c(F)cc23)[C@@H](C)C1` [Example 58-23, 1-(4,6-diethyl-5-pyrimidinyl)-6-fluoro-7-(2-fluoro-6-hydroxyphenyl)-4-((2S)-2-methyl-4-(2-propenoyl)-1-piperazinyl)pyrido[2,3-d]pyrimidin-2(1H)-one] were 0.732 | nda μM and 6.05.
For the compound `C=CC(=O)N1CCN(c2nc(=O)n(-c3c(F)cccc3C(C)C)c3nc(-c4c(O)cccc4F)c(F)cc23)[C@@H](C)C1` [Example 59-2, 6-fluoro-7-(2-fluoro-6-hydroxyphenyl)-1-(2-fluoro-6-(2-propanyl)phenyl)-4-((2S)-2-methyl-4-(2-propenoyl)-1-piperazinyl)pyrido[2,3-d]pyrimidin-2(1H)-one], in experiment [1], the “Coupled exchange IC50 (5 min)” value is recorded as 0.257 | nda μM. In experiment [2] (MIA PaCa-2, 2 h), the pIC50 was 6.13.
For `C=CC(=O)N1CCN(c2nc(=O)n(-c3c(F)cccc3C(C)C)c3nc(-c4ccccc4F)c(F)cc23)[C@@H](C)C1` [Example 59-3, 6-fluoro-7-(2-fluorophenyl)-1-(2-fluoro-6-(2-propanyl)phenyl)-4-((2S)-2-methyl-4-(2-propenoyl)-1-piperazinyl)pyrido[2,3-d]pyrimidin-2(1H)-one], in experiment [1], the “Coupled exchange IC50 (5 min)” value was 0.521 | nda μM. For the same compound, the pIC50 in experiment [2] (MIA PaCa-2, 2 h) is 6.21.
As to `C=CC(=O)N1CCN(c2nc(=O)n(-c3c(C4CC4)ncnc3C3CC3)c3nc(-c4c(O)cccc4F)c(F)cc23)[C@@H](C)C1` [Example 59-4, 1-(4,6-dicyclopropyl-5-pyrimidinyl)-6-fluoro-7-(2-fluoro-6-hydroxyphenyl)-4-((2S)-2-methyl-4-(2-propenoyl)-1-piperazinyl)pyrido[2,3-d]pyrimidin-2(1H)-one], the “Coupled exchange IC50 (5 min)” value in experiment [1] is given as 0.133 | nda μM. Besides, the pIC50 in experiment [2] (MIA PaCa-2, 2 h) was 6.79.
Regarding `C=CC(=O)N1CCN(c2nc(=O)n(-c3nccnc3C3CC3)c3nc(-c4c(O)cccc4F)c(F)cc23)[C@@H](C)C1` [Example 59-6, 1-(3-cyclopropyl-2-pyrazinyl)-6-fluoro-7-(2-fluoro-6-hydroxyphenyl)-4-((2S)-2-methyl-4-(2-propenoyl)-1-piperazinyl)pyrido[2,3-d]pyrimidin-2(1H)-one], the “Coupled exchange IC50 (5 min)” value in experiment [1] is on record as 0.932 | nda μM. For the same compound, the pIC50 in experiment [2] (MIA PaCa-2, 2 h) was 6.18.
Taken in the same sequence, the figures for `C=CC(=O)N1CCN(c2nc(=O)n(-c3ncccc3C3CC3)c3nc(-c4ccccc4F)c(Cl)cc23)[C@@H](C)C1` [Example 60-1, 6-Chloro-1-(3-cyclopropyl-2-pyridinyl)-7-(2-fluorophenyl)-4-((2S)-2-methyl-4-(2-propenoyl)-1-piperazinyl)pyrido[2,3-d]pyrimidin-2(1H)-one] were 0.422 | nda μM and 6.69.
With `C=CC(=O)N1CCN(c2nc(=O)n(C3CCC34CCCC4)c3nc(-c4c(O)cccc4F)c(Cl)cc23)[C@@H](C)C1` (stereo partly drawn) [Example 60-9, 6-chloro-7-(2-fluoro-6-hydroxyphenyl)-4-((2S)-2-methyl-4-(2-propenoyl)-1-piperazinyl)-1-(spiro[3.4]octan-1-yl)pyrido[2,3-d]pyrimidin-2(1H)-one], in experiment [1], the “Coupled exchange IC50 (5 min)” value was 0.484 | nda μM. Moreover, the pIC50 in experiment [2] (MIA PaCa-2, 2 h) was 5.80.
In the case of `C=CC(=O)N1CCN(c2nc(=O)n(-c3nccnc3C3CC3)c3nc(-c4ccccc4F)c(Cl)cc23)[C@@H](C)C1` [Example 60-10, 6-chloro-1-(3-cyclopropyl-2-pyrazinyl)-7-(2-fluorophenyl)-4-((2S)-2-methyl-4-(2-propenoyl)-1-piperazinyl)pyrido[2,3-d]pyrimidin-2(1H)-one], in experiment [1], the “Coupled exchange IC50 (5 min)” value is on record as 0.328 | nda μM. Further, in experiment [2] (MIA PaCa-2, 2 h), the pIC50 was 6.81.
Turning to `C=CC(=O)N1CCN(c2nc(=O)n(-c3c(OC)cccc3C(C)C)c3nc(-c4ccccc4F)c(Cl)cc23)[C@@H](C)C1` [Example 60-19, 6-chloro-7-(2-fluorophenyl)-1-(2-methoxy-6-(2-propanyl)phenyl)-4-((2S)-2-methyl-4-(2-propenoyl)-1-piperazinyl)pyrido[2,3-d]pyrimidin-2(1H)-one], the “Coupled exchange IC50 (5 min)” value in experiment [1] is given as 0.137 | nda μM. In experiment [2] (MIA PaCa-2, 2 h), the pIC50 was 6.81.
On to `C=CC(=O)N1CCN(c2nc(=O)n(-c3c(C#N)cccc3C(C)C)c3nc(-c4ccccc4F)c(Cl)cc23)[C@@H](C)C1` [Example 60-20, 2-(6-chloro-7-(2-fluorophenyl)-4-((2S)-2-methyl-4-(2-propenoyl)-1-piperazinyl)-2-oxopyrido[2,3-d]pyrimidin-1(2H)-yl)-3-(2-propanyl)benzonitrile], for which, in experiment [1], the “Coupled exchange IC50 (5 min)” value is listed as 0.053 | nda μM. In experiment [2] (MIA PaCa-2, 2 h), the pIC50 is 7.21.
In the case of `C=CC(=O)N1CCN(c2nc(=O)n(-c3scnc3CC)c3nc(-c4ccccc4F)c(Cl)cc23)[C@@H](C)C1` [Example 60-21, 6-chloro-1-(4-ethyl-1,3-thiazol-5-yl)-7-(2-fluorophenyl)-4-((2S)-2-methyl-4-(2-propenoyl)-1-piperazinyl)pyrido[2,3-d]pyrimidin-2(1H)-one], the “Coupled exchange IC50 (5 min)” value in experiment [1] was 0.35 | nda μM. For the same compound, the pIC50 in experiment [2] (MIA PaCa-2, 2 h) is 6.48.
For `C=CC(=O)N1CCN(c2nc(=O)n(-c3scnc3CC)c3nc(-c4c(O)cccc4F)c(Cl)cc23)[C@@H](C)C1` [Example 60-22, 6-chloro-1-(4-ethyl-1,3-thiazol-5-yl)-7-(2-fluoro-6-hydroxyphenyl)-4-((2S)-2-methyl-4-(2-propenoyl)-1-piperazinyl)pyrido[2,3-d]pyrimidin-2(1H)-one] the same measures were 0.159 | nda μM and 6.36.
In the case of `C=CC(=O)N1CCN(c2nc(=O)n(-c3ncccc3C(C)C)c3nc(-c4ccccc4F)c(Cl)cc23)[C@@H](C)C1` [Example 60-28, 6-chloro-7-(2-fluorophenyl)-4-((2S)-2-methyl-4-(2-propenoyl)-1-piperazinyl)-1-(3-(2-propanyl)-2-pyridinyl)pyrido[2,3-d]pyrimidin-2(1H)-one], the “Coupled exchange IC50 (5 min)” value in experiment [1] is recorded as 0.101 | nda μM. Also, the pIC50 in experiment [2] (MIA PaCa-2, 2 h) is 7.35.
Consider `C=CC(=O)N1CCN(c2nc(=O)n(-c3c(C4CC4)ncnc3C3CC3)c3nc(-c4c(O)cccc4F)c(Cl)cc23)[C@@H](C)C1` [Example 60-29, 6-chloro-1-(4,6-dicyclopropyl-5-pyrimidinyl)-7-(2-fluoro-6-hydroxyphenyl)-4-((2S)-2-methyl-4-(2-propenoyl)-1-piperazinyl)pyrido[2,3-d]pyrimidin-2(1H)-one], for which the pIC50 in experiment [1] (read-out: Coupled exchange IC50 (5 min)) was 7.47; in experiment [2] it was 7.44.
For `C=CC(=O)N1CCN(c2nc(=O)n(-c3c(C)ncnc3C3CC3)c3nc(-c4ccccc4F)c(Cl)cc23)[C@@H](C)C1` [Example 60-30, 6-chloro-1-(4-cyclopropyl-6-methyl-5-pyrimidinyl)-7-(2-fluorophenyl)-4-((2S)-2-methyl-4-(2-propenoyl)-1-piperazinyl)pyrido[2,3-d]pyrimidin-2(1H)-one], the “Coupled exchange IC50 (5 min)” value in experiment [1] is 0.218 | nda μM. Further, the pIC50 in experiment [2] (MIA PaCa-2, 2 h) is 6.70.
As for `C=CC(=O)N1CCN(c2nc(=O)n(-c3c(C)cccc3C(C)C)c3nc(-c4c(O)cccc4Cl)c(F)cc23)[C@@H](C)C1` [Example 68-1, 7-(2-Chloro-6-hydroxyphenyl)-6-fluoro-1-(2-methyl-6-(2-propanyl)phenyl)-4-((2S)-2-methyl-4-(2-propenoyl)-1-piperazinyl)pyrido[2,3-d]pyrimidin-2(1H)-one], in experiment [1], the “Coupled exchange IC50 (5 min)” value is reported as 0.111 | nda μM. For the same compound, the pIC50 in experiment [2] (MIA PaCa-2, 2 h) is 6.67.
Taken in the same sequence, the figures for `C=CC(=O)N1CCN(c2nc(=O)n(-c3ccccc3C(C)C)c3nc(-c4nc(N)ccc4Cl)c(Cl)cc23)[C@@H](C)C1` [Example 70-1, 7-(6-Amino-3-chloro-2-pyrindinyl)-6-chloro-4-((2S)-2-methyl-4-(2-propenoyl)-1-piperazinyl)-1-(2-(2-propanyl)phenyl)pyrido[2,3-d]pyrimidin-2(1H)-one] were 0.225 | nda μM and 6.65.
